1 substance from patent EP0444898A1, “Cyclic hexapeptide oxytocin antagonists” (MERCK & CO. INC., priority 1990, dated 1991) can be followed below.

As a reminder, the Kd is a measure of binding affinity in units of concentration.

This test concerns the target T1, uterine OT receptors (Rattus norvegicus, UniProt P70536).
T1 construct: a crude membrane preparation of uteri; from tissue; host or cells: uterus of DES-treated rats, crude membranes
T1 sequence (P70536 1-388): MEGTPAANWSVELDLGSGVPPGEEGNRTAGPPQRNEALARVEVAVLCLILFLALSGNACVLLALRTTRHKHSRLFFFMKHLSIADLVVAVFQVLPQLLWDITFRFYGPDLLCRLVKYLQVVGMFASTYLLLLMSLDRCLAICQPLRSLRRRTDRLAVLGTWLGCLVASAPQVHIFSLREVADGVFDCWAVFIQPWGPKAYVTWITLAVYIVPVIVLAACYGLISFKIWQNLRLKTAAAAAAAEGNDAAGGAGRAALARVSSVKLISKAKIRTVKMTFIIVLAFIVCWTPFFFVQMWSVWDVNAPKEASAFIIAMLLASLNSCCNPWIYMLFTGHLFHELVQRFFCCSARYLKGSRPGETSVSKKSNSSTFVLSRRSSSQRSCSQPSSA
In words: [3H]OT radioligand binding to uterine OT receptors, crude membrane preparation. Conditions: saturation binding assays; uterus. Details: species or system rats.

[tyrosyl, 3,5-^3H]OT [[^3H]OT] came in with a Kd of 0.7 nM.
